Results published in US9890192B2, “Targeted nitroxide agents” (University of Pittsburgh—of the Commonwealth System of …, priority 2008, dated 2018).
“Also recorded” adds a separate entry of the source.

What was measured:
progeroid Ercc1−/Δ mice = experiment: Signs of aging in progeroid Ercc1−/Δ mice; assay type: in vivo, mouse; conditions: 2 mg/kg intraperitoneally three times per week
Description: To assess the effectiveness of XJB-5-131 in inhibiting degeneration and/or signs of aging, the compound was administered, over an 18-21 week period, progeroid Ercc1^−/Δ mice, at a dose of 2 mg/kg in sunflower oil carrier (to promote solubility) administered intraperitoneally three times per week (FIG. 32). Sunflower seed oil was administered to twin Ercc1^−/Δ mice according to the same schedule as a control. The treated and control mice were monitored twice a week for weight and symptom/sign development.
FIG. 33 presents a summary table showing the results of the treatment with XJB-5-131 (“XJB” in this figure), relative to control (sunflower seed oil) after treatment from 5 wks of life until death. The numbers indicate the average age at onset of each age-related symptom for mice treated with XJB-5-131 or vehicle only (oil) (n=5 mice per group). […] Of note, all of the signs of neurodegeneration, including dystonia, trembling, ataxia, wasting and urinary incontinence were delayed in the treated animals, providing strong evidence that XJB-5-131 protects neurons against degenerative changes caused by oxidative stress.
To assess the ability of XJB-5-131 to inhibit deterioration of intervertebral discs (an index of degenerative disease of the vertebra), the level of glycosaminoglycan in the discs in treated and control mice were measured, and the results are shown in FIG. 34. The intervertebral discs of treated mice contained approximately 30 percent more glycosaminoglycan relative to control mice, indicating inhibition of disc degeneration.

[1] = system: Ercc1−/cond; K14-Cre mice; experiment: Photoaging after UV-B in Ercc1−/cond; K14-Cre mice; assay type: in vivo, mouse; conditions: 80 μg in a cream daily for five days
Description: As a measure of the effect of XJB-5-131 on photoaging, Ercc1^−/cond; K14-Cre mice, which are missing ERCC1 only in the skin, were shaved, treated with a depilatory then irradiated with UV-B light to induce a sunburn (500 J/m^2, the median erythemal dose). Subsequently, the mice were treated with XJB-5-131 (80 μg) emulsified in a cream daily for five days.

[2] = system: γ-H2AX in primary MEF cells from Ercc1−/− mice; experiment: γ-H2AX immunostaining in Ercc1−/− MEFs under oxidative stress; assay type: cell-based, mouse; conditions: 1 μM, 48 hours
Description: Next, the abilities of these two agents, as well as XJB-5-131 and JP4-039, each at a concentration of 1 μM, were tested for their ability to prevent oxidation-induced DNA double-strand breaks in cell cultures prepared, and oxidatively stressed, as in the preceding paragraph. Treated as well as untreated cells were, after 48 hours of treatment, immunostained for γ-H2AX, a marker of DNA double-strand breaks as well as cellular senescence.

[3] = system: phospholipids in intestinal mucosa; experiment: Peroxidation of phospholipids in gut mucosa after hemorrhagic shock; assay type: in vivo, rat; conditions: 10 μM intraluminal; 2 h HS
Description: Assay for peroxidation of phospholipods. Gut mucosal samples were homogenized. Lipids were extracted from homogenates using the Folch procedure, see M. Lees and G. H. Sloan-Stanley, A simple method for isolation and purification of total lipids from animal tissue, J. BIOL. CHEM. 226:497-509 (1957), and resolved by 2D HPTLC (High Performance Thin Layer Chromatography) as previously described, see Kagan, V. E. et al., A role for oxidative stress in apoptosis: Oxidation and externalization of phosphatidylserine is required for macrophage clearance of cell undergoing Fas-mediated apoptosis, J Immunol. 169:487-489 (2002). Spots of phospholipids were scraped from HPTLC plates and phospholipids were extracted from silica. Lipid phosphorus was determined by a micro-method, see Bottcher, C. J. F. et al, A rapid and sensitive sub-micro phosphons determination. Anal Chim Acta. 24: 203-204 (1961).
Oxidized phospholipids were hydrolyzed by pancreatic phospholipase A2 (2 U/μl) in 25 mM phosphate buffer containing 1 mM CaCl2. 0.5 mM EDTA and 0.5 mM sodium dodecyl sulfate (SDS) (pH 8.0, at room temperature for 30 min). Fatty acid hydroperoxides formed were determined by fluorescence HPLC of resorufin stoichiometrically formed during their microperoxidase 11-catalized reduction in presence of Amplex Red (for 40 min at 4° C.) (8). Fluorescence HPLC (Eclipse XDB-C18 column, 5 μm, 150×4.6 mm, mobile phase was composed of 25 mM disodium phosphate buffer (pH 7.0)/methanol (60:40 v/v); excitation wavelength 560 nm, emission wavelength 590 nm) was performed on a Shimadzu LC-100AT HPLC system equipped with fluorescence detector (RF-10Axl) and autosampler (SIL-10AD).
In the subsequent series of in vivo studies, the affect of intraluminal XJB-5-131 on hemorrhage-induced peroxidation of phospholipids in intestinal mucosa was examined. […] In a preferred embodiment, 0.3 mL of test solution filled the lumen of each ileal compartment.
After two hours of HS, samples of ileal mucosa from the gut sacs filled with the vehicle and XJB-5-131 were obtained and compared with ileal mucosa of normal MECs. […]

CC(C)C[C@@H](/C=C/[C@H](Cc1ccccc1)C(=O)N1CCC[C@H]1C(=O)N[C@H](C(=O)N[C@@H](CCCNC(=O)OCc1ccccc1)C(=O)NC1CC(C)(C)N([O])C(C)(C)C1)C(C)C)NC(=O)OC(C)(C)C [XJB-5-131]
age at onset of age-related symptoms (progeroid Ercc1−/Δ mice): significantly delayed | body weight / tolerability (progeroid Ercc1−/Δ mice): did not lose weight; also recorded: does not cause weight loss | glycosaminoglycan in intervertebral discs, more relative to control mice (progeroid Ercc1−/Δ mice): approximately 30% | overall aging score (progeroid Ercc1−/Δ mice): significantly improved | signs of neurodegeneration (dystonia, trembling, ataxia, wasting, urinary incontinence) (progeroid Ercc1−/Δ mice): delayed | appearance of skin after UV-B [1]: much more smooth and healthy | γ-H2AX (oxidation-induced DNA double-strand breaks) [2]: less effective | peroxidation of phosphatidylcholine (PC) [3]: no effect | peroxidation of phosphatidylethanolamine (PE) [3]: only had a small effect | peroxidation of phosphatidylserine (PS) [3]: no effect
